Test results as given in US20180110762A1, “Compositions Methods for Treating Chronic Kidney Disease” (Merck Sharp & Dohme Corp, priority 2015, published 2018).

What was measured:
postmenopausal women = details: Phase II study; cited from earlier work
[1] = target: T1, αvβ3 purified from 293 cells overexpressing αvβ3 (Homo sapiens, UniProt P05106+P06756); assay: SPAV3 binding assay (scintillation proximity)
T1 construct: made in house; host or cells: 293 cells overexpressing αvβ3
From the text: • 1. Wheat germ agglutinin Scintillation Proximity Beads (SPA): Amersham • 2. Octylglucopyranoside: Calbiochem • 3. HEPES: Calbiochem • 4. NaCl: Fisher • 5. CaCl2: Fisher • 6. MgCl2: SIGMA • 7. Phenylmethylsulfonylfluoride (PMSF): SIGMA • 8. Optiplate: PACKARD • 9. (S)-3-(4-(2-(6-aminopyridin-2-yl)ethyl)benzamido)-2-((4-(iodo-^125I)phenyl)sulfonamido)propanoic acid as found in WO0046215 (specific activity 500-1000 Ci/mmole) • 10. Test compound • 11. Purified integrin receptor: αvβ3 was purified from 293 cells overexpressing αvβ3 (Duong et al., J. Bone Min. Res., 8:S378, 1993) according to Pytela (Methods in Enzymology, 144:475, 1987) • 12. Binding buffer: 50 mM HEPES, pH 7.8, 100 mM NaCl, 1 mM Ca^2+/Mg^2+, 0.5 mM PMSF • 13. 50 mM octylglucoside in binding buffer: 50-OG buffer
• 1. Pretreatment of SPA beads: • 500 mg of lyophilized SPA beads were first washed four times with 200 ml of 50-OG buffer and once with 100 ml of binding buffer, and then resuspended in 12.5 ml of binding buffer. • 2. Preparation of SPA beads and receptor mixture • In each assay tube, 2.5 μl (40 mg/ml) of pretreated beads were suspended in 97.5 μl of binding buffer and […] of 50-OG buffer. […] (˜30 ng/μ1) of purified receptor was added to the beads in suspension with stirring at room temperature for 30 minutes. The mixture was then centrifuged at 2,500 rpm in a Beckman GPR Benchtop centrifuge for 10 minutes at 4° C. The pellets were then resuspended in 50 μl of binding buffer and 25 μl of 50-OG buffer. • 3. Reaction • The following were sequentially added into Optiplate in corresponding wells: • (i) Receptor/beads mixture (75 μl) • (ii) 25 μl of each of the following: compound to be tested, binding buffer for total binding or A-8 for non-specific binding (final concentration 1 μM) • (iii) (S)-3-(4-(2-(6-aminopyridin-2-yl)ethyl)benzamido)-2-((4-(iodo-^125I)phenyl)sulfonamido)propanoic acid as found in WO0046215 (specific activity 500-1000 Ci/mmole) in binding buffer (25 μl, final concentration 40 pM) • (iv) Binding buffer (125 μl) • (v) Each plate was sealed with plate sealer from PACKARD and incubated overnight with rocking at 4° C. • 4. Plates were counted using PACKARD TOPCOUNT • 5. % inhibition was calculated as follows: • A=total counts • B=nonspecific counts • C=sample counts
% inhibition=[{(A−B)−(C−B)}/(A−B)]/(A−B)×100

human podocytes [2] = assay: Oris cell migration assay, PAN-induced podocyte motility, fibronectin coated plate; format: cell-based; details: 48 h; for % migrated cells vs control cells: FN plate
Procedure: (§1) The effects of Compound A on podocyte motility were evaluated using Oris cell migration assay kit in 96-well plates (coated with either vitronectin or fibronectin). The Oris™ Cell Migration Assay is designed with a unique cell seeding stopper or biocompatible gel, detection mask, and stopper tool. These unique plate designs generate highly reproducible results using a microscope, digital imaging system. 7 to 10-day differentiated human podocytes (100 ul of 50,000 cells/ml) were seeded in each well of the ORIS plate. After sitting at room temperature for about 15 minutes, the plate was placed into 37° C. incubator and podocytes were incubated with complete podocyte medium for 24 h. Stoppers from each well (keeping stoppers in 4 wells which were served as time zero control) were carefully removed, medium discarded, and fresh (10% FBS) podocyte medium added to each well. Podocytes were pretreated with Compound A (10 uM to 0.01 nM) for 2 h prior to puromycin animonucleoside (PAN, 30 ug/ml or 15 ug/ml) treatment. Podocytes were then treated with PAN in the presence or absence of Compound A at different concentrations (ranging from 10 uM to 0.01 nM) in 10% FBS medium for 48 h. Podocytes were then fixed with 4% paraformaldehyde in PBS for 30 minutes (adding 50 ul to each well). After discarding the fixative, podocytes were stained with Hoechst 33342 (stock […] working concentration at 5 uM) for 30 min. Podocytes were then washed with PBS three times. Finally, after adding 100 ul of PBS to each well, plate was sealed with a black cover and kept at 4° C. until image analysis. Images of podocyte motility were captured using Acumen eX3 (manufacturer TTP Labtech Ltd. address: Melbourn Science Park, Melbourn, Hertfordshire SG8 6EE, United Kingdom).
Effect of Compound A (“A”) on human podocyte motility was examined using Oris cell migration assay in fibronectin (FN) coated-96-well plate.

human podocytes [3] = assay: Oris cell migration assay, PAN-induced podocyte motility, vitronectin coated plate; format: cell-based; details: 48 h; for % migrated cells vs control cells: VN plate
Procedure: as §1
Effect of Compound A (“A”) on human podocyte motility was examined using Oris cell migration assay in vitronectin (VN) coated-96-well plate.

T1 sequence (P06756 31-889 limits assumed): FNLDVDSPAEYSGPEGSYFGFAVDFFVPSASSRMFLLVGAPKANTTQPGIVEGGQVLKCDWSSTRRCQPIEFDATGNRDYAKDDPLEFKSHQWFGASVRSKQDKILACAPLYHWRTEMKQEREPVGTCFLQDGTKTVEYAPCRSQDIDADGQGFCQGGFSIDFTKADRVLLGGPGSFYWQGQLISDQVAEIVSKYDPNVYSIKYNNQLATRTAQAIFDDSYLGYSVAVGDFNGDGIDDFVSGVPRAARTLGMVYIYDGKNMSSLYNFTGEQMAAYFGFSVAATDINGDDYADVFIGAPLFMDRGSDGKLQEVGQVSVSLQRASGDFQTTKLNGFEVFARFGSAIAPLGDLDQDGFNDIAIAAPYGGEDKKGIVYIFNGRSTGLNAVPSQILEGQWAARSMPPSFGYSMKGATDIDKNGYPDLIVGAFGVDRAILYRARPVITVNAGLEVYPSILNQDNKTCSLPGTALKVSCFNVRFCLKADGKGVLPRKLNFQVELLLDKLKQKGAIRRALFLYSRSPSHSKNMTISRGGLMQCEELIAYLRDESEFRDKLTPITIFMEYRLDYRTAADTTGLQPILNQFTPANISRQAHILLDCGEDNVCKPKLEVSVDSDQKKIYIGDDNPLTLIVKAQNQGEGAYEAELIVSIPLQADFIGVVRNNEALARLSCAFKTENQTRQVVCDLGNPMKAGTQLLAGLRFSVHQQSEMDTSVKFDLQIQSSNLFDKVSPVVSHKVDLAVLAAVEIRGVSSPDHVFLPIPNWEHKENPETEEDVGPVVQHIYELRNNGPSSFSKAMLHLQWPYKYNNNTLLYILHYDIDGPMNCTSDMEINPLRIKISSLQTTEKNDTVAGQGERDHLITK
T1 sequence (P06756 891-1048 partner limits assumed): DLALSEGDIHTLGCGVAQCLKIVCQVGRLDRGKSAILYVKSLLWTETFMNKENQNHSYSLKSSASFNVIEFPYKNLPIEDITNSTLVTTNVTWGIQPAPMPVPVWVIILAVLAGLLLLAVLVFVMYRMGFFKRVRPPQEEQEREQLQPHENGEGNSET
T1 sequence (P05106 27-788): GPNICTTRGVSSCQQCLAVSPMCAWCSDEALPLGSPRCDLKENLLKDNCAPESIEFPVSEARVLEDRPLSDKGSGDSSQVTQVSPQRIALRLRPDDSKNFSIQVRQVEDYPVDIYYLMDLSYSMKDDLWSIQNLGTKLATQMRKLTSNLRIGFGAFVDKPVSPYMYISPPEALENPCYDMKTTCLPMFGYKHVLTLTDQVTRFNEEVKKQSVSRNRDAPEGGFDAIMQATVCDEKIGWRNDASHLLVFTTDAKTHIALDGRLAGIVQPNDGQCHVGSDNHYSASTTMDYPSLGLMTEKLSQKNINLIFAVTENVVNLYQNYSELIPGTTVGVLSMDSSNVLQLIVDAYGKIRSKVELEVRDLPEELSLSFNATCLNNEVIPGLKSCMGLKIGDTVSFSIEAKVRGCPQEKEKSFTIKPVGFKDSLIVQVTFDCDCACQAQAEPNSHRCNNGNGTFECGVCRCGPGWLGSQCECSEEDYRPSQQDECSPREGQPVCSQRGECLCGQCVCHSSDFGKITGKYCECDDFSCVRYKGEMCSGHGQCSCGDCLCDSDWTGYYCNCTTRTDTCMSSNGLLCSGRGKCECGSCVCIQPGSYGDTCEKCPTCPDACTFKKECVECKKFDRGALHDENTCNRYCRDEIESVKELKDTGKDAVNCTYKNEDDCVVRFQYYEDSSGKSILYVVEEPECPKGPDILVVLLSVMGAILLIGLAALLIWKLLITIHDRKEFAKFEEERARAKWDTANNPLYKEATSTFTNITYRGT

COc1ccc([C@H](CC(=O)O)N2CCN(CCCc3ccc4c(n3)NCCC4)C2=O)cn1 [Compound A, 3-{2-Oxo-3-[3-(5,6,7,8-tetrahydro-[1,8]naphthyridin-2-yl)-propyl]imidazolidin-1-yl}-3 (S)-(6-methoxy-pyridin-3-yl)-propionic acid]
bone density (postmenopausal women): increase bone density
IC50 [1]: 0.1 nM
IC50 (human podocytes [2]; Homo sapiens, fibronectin coated plates, PAN 15 ug/ml, read-out: IC50, inhibition of puromycin-induced human podocyte motility): 1.12 nM
% migrated cells vs control cells (human podocytes [2]; PAN 15 ug/ml + A 0.01 nM): 76.3%
% migrated cells vs control cells (human podocytes [2]; PAN 15 ug/ml + A 0.0316 nM): 80.3%
% migrated cells vs control cells (human podocytes [2]; PAN 15 ug/ml + A 0.1 nM): 84.9%
% migrated cells vs control cells (human podocytes [2]; PAN 15 ug/ml + A 0.316 nM): 83.6%
% migrated cells vs control cells (human podocytes [2]; PAN 15 ug/ml + A 1 nM): 72.9%
% migrated cells vs control cells (human podocytes [2]; PAN 15 ug/ml + A 3.16 nM): 64.8%
% migrated cells vs control cells (human podocytes [2]; PAN 15 ug/ml + A 10 nM): 54.1%
% migrated cells vs control cells (human podocytes [2]; PAN 15 ug/ml + A 100 nM): 35.8%
% migrated cells vs control cells (human podocytes [2]; PAN 15 ug/ml + A 1 uM): 36.3%
% migrated cells vs control cells (human podocytes [2]; PAN 15 ug/ml + A 10 uM): 33.1%
IC50 (human podocytes [3]; Homo sapiens, vitronectin coated plates, PAN 30 ug/ml, read-out: IC50, inhibition of puromycin-induced human podocyte motility): 9.94 nM
% migrated cells vs control cells (human podocytes [3]; PAN 30 ug/ml + A 0.01 nM): 55.1%
% migrated cells vs control cells (human podocytes [3]; PAN 30 ug/ml + A 0.0316 nM): 44.0%
% migrated cells vs control cells (human podocytes [3]; PAN 30 ug/ml + A 0.1 nM): 43.0%
% migrated cells vs control cells (human podocytes [3]; PAN 30 ug/ml + A 0.316 nM): 36.6%
% migrated cells vs control cells (human podocytes [3]; PAN 30 ug/ml + A 1 nM): 42.1%
% migrated cells vs control cells (human podocytes [3]; PAN 30 ug/ml + A 3.16 nM): 31.3%
% migrated cells vs control cells (human podocytes [3]; PAN 30 ug/ml + A 10 nM): 28.6%
% migrated cells vs control cells (human podocytes [3]; PAN 30 ug/ml + A 100 nM): 19.6%
% migrated cells vs control cells (human podocytes [3]; PAN 30 ug/ml + A 1 uM): 16.1%
% migrated cells vs control cells (human podocytes [3]; PAN 30 ug/ml + A 10 uM): 16.9%
